Data as given in patent EP4635950A1, “NOVEL CRYSTAL FORM OF GLP-1 RECEPTOR AGONIST, METHOD FOR PREPARING SAME, PHARMACEUTICAL COMPOSITION THEREOF, AND USE THEREOF” (Hangzhou Zhongmeihuadong Pharmaceutical Co., Ltd., priority 2022, dated 2024).
Values after ≈ are worked out from the molar mass of the structure shown. Where two headings read alike, the source gives them in different places. Values belong to the compound of their own block, whether it stands above or below them.

Columns and labels:
[1] = biological target: T1, Human GLP-1R (Homo sapiens, UniProt P43220); assay: GLP-1R agonistic activity, HTRF cAMP assay in 293A GFP-GLP-1R cells; type: cell-based; settings: cAMP pathway
T1 construct: expressed in transfected cells; host or cells: 293A cells stably expressing GLP-1R-GFP
Description: The method was a competitive immunoassay.

[2] = Hygroscopicity by dynamic vapor sorption (DVS) at 25°C; type: physicochemical
[3] = Suspension competition test of Crystal Form A and Crystal Form G; type: physicochemical; settings: Crystal Form A and Crystal Form G in EtOH and a mixture of MeOH and water, room temperature and 50°C
[4] = High-temperature stability at 60°C (HPLC purity, crystal form); type: physicochemical; settings: for Purity (% Area) / purity decrease: 60°C
Description: [table] […] Table E-4: Results of High-Temperature Stability Determination

[5] = High-humidity stability at 90% RH (HPLC purity, crystal form); type: physicochemical; settings: for Purity (% Area) / purity decrease: 90% RH
Description: [table] […] Table E-5: Results of High-Humidity Stability Determination

[6] = Equilibrium solubility, 24 hours at 37°C in 4 media, with XRPD of residual solid; type: physicochemical; settings: for solubility at 24 h: 37 °C, thermodynamic from solid, read-out: Solubility after 24 h; for Crystal Form: XRPD
Experimental: After 24 hours, samples were taken and centrifuged for separation. The obtained solids were tested by XRPD, and the supernatants were filtered for solubility testing.

[7] = Crystal form stability on drying or sealed storage; type: physicochemical; settings: dried at 50°C for 3 hours
Description: The 4 metastable crystal forms described in Example 4 had lower crystal form stability than each crystal form described in Example 3.

[8] = Solid-state stability under long-term and accelerated conditions (HPLC purity, crystal form); type: physicochemical; settings: for Purity (% Area) / purity decrease: 10 days
Description: [table] […] Table E-3: Results of Solid-State Stability Determination

[9] = Pressure stability at 1000 Mpa for 5 minutes (HPLC purity, crystal form); type: physicochemical
Description: [table] […] Table E-6: Results of Pressure Stability Determination

T1 sequence (P43220 24-463): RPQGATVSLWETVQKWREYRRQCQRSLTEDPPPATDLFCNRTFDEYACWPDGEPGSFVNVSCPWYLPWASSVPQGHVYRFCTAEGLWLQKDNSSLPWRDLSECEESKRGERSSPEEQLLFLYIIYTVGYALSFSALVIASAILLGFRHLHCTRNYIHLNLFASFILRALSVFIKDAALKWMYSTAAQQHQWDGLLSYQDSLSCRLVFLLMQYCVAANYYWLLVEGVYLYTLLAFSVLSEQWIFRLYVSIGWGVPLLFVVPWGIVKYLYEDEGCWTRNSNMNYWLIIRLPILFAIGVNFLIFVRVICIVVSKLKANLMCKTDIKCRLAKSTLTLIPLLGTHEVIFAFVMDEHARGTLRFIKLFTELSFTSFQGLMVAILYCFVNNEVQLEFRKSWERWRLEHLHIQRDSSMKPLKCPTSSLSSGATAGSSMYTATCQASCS

agonistic effect on GLP-1R [1]: strong agonistic effect
SMILES: O=C(O)c1ccc2nc(CN3CCC(c4cccc(OCc5ccc(C6COC6)cc5F)n4)CC3)n(C[C@@H]3CCO3)c2c1 [Compound 1, (S)-2-((4-(6-((2-fluoro-4-(oxetan-3-yl)benzyl)oxy)pyridin-2-yl)piperidin-1-yl)methyl)-1-(oxetan-2-ylmethyl)-1H-benzo[d]imidazole-6-carboxylic acid]

Sample Weight Change at 80% RH (%) [2]: 0.89% | outcome of suspension competition test [3]: transforms into Crystal Form G | Purity (% Area) ([4]; 1 day): 98.00 % Area | purity decrease ([4]; 1 day): about 0.1% | Purity (% Area) ([4]; 10 days): 96.98 % Area | purity decrease ([4]; 10 days): about 1.1% | Initial Purity (% Area) ([4]; initial, before storage): 98.11 % Area | Purity (% Area) ([5]; 1 Day): 97.77 % Area | purity decrease ([5]; 1 day): about 0.3% | Purity (% Area) ([5]; 10 days): 97.07 % Area | purity decrease ([5]; 10 days): about 1.0% | Initial Purity (% Area) ([5]; initial, before storage): 98.11 % Area | Whether the Crystal Form Changed ([6]; 24 h in FaSSGF): YES | Solubility after 24 h ([6]; FaSSGF): 200 µg/mL (≈ 341 µM) | solubility at 24 h ([6]; FaSSIF (fasted-state simulated intestinal fluid), fassif, FaSSIF): 50 µg/mL (≈ 85.2 µM) | solubility at 24 h ([6]; FeSSIF (fed-state simulated intestinal fluid), fessif, FeSSIF): 320 µg/mL (≈ 545 µM) | solubility at 24 h ([6]; purified water, water, H2O): < 100 µg/mL | Crystal Form ([6]; solid after 24 h in FaSSGF): a hydrochloride salt was formed | Crystal Form ([6]; solid after 24 h in FaSSIF): Crystal Form A | Crystal Form ([6]; solid after 24 h in FeSSIF): Crystal Form A | Crystal Form ([6]; solid after 24 h in H2O): Crystal Form A | crystal form change after drying [7]: no crystal form change is observed | Purity (% Area) ([8]; 25°C/60%RH): 97.50 % Area | Purity (% Area) ([8]; 40°C/75%RH): 97.33 % Area | purity decrease ([8]; accelerated conditions (40°C/75% RH)): about 0.8% | crystal form change ([8]; before and after testing, long-term and accelerated conditions): no crystal form change was observed | Initial Purity (% Area) ([8]; initial, before storage): 98.11 % Area | purity decrease ([8]; long-term conditions (25°C/60% RH)): about 0.6% | Purity (% Area) ([9]; 1000 Mpa, 5 min): 97.44 % Area | purity decrease ([9]; 1000 Mpa, 5 min): about 0.7% | Initial Purity (% Area) ([9]; initial, before pressing): 98.11 % Area
SMILES: O=C(O)c1ccc2nc(CN3CCC(c4cccc(OCc5ccc(C6COC6)cc5F)n4)CC3)n(C[C@@H]3CCO3)c2c1 [Crystal Form A, (S)-2-((4-(6-((2-fluoro-4-(oxetan-3-yl)benzyl)oxy)pyridin-2-yl)piperidin-1-yl)methyl)-1-(oxetan-2-ylmethyl)-1H-benzo[d]imidazole-6-carboxylic acid]
